Source: ChEMBL document CHEMBL1201862, “PubChem BioAssay data set” (2004)
“And” between values parts separate entries of the source, which are not always exact repeats. Equal entries are not always repeated.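 A five-concentration, 48-hour dose response in 96-well plates underlies each endpoint, interpolated linearly between surrounding concentrations. GI50 marks 50% less growth.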 The source made the active and inactive calls. No stated cut-off is given here; in the data, active = GI50 up to about 1.1 µM and inactive = higher.

Columns and labels:
Assay in all cases: inhibition of tumour cell growth, NCI panel, 48 h
[1] = test system: HL-60
[2] = test system: PC-3
[3] = test system: OVCAR-5
[4] = test system: CCRF-CEM
[5] = test system: CAKI-1
[6] = test system: NCI-H522
[7] = test system: NCI/ADR-RES
[8] = test system: EKVX
[9] = test system: NCI-H460
[10] = test system: M14
[11] = test system: MOLT-4
[12] = test system: KM12
[13] = test system: NCI-H226
[14] = test system: NCI-H23
[15] = test system: A549
[16] = test system: HCT-15
[17] = test system: UACC-62
[18] = test system: K562
[19] = test system: SF-295
[20] = test system: SK-OV-3

Compound: CCCCOC(=O)NC(Nc1cccc(C(F)(F)F)c1)(C(F)(F)F)C(F)(F)F
- GI50 [1]: 23.4 µM (inactive)
- GI50 [2]: 68.7 µM (inactive)
- GI50 [3]: > 100 µM (inactive)
- GI50 [4]: 29.6 µM (inactive)
- GI50 [5]: 49.2 µM (inactive)
- GI50 [6]: 56.4 µM (inactive)
- GI50 [7]: 45.3 µM (inactive)
- GI50 [8]: 51.5 µM (inactive)
- GI50 [9]: 32.7 µM (inactive)
- GI50 [10]: 47.3 µM (inactive)
- GI50 [11]: 34.8 µM (inactive)
- GI50 [12]: 75.9 µM (inactive)
- GI50 [13]: 53.7 µM (inactive)
- GI50 [14]: 50.8 µM (inactive)
- GI50 [15]: 66.8 µM (inactive)
- GI50 [16]: 45.2 µM
- GI50 [17]: 58.5 µM (inactive)
- GI50 [18]: 30.5 µM (inactive)
- GI50 [19]: 26.6 µM (inactive)

Compound: COc1cc2c(c(OC)c1OC)C(=O)[C@H](O)[C@H]2NC(N)=O
- GI50 [1]: 90.8 µM (inactive)
- GI50 [2]: > 100 µM (inactive)
- GI50 [3]: 76.7 µM (inactive)
- GI50 [4]: > 100 µM (inactive)
- GI50 [5]: 90.6 µM (inactive)
- GI50 [6]: > 100 µM (inactive)
- GI50 [7]: > 100 µM (inactive)
- GI50 [8]: 99.5 µM (inactive)
- GI50 [9]: 66.8 µM (inactive)
- GI50 [10]: 47.6 µM (inactive)
- GI50 [11]: 95.9 µM (inactive)
- GI50 [12]: > 100 µM (inactive)
- GI50 [13]: > 100 µM (inactive)
- GI50 [14]: 53.8 µM (inactive)
- GI50 [15]: > 100 µM (inactive)
- GI50 [16]: 27.7 µM
- GI50 [17]: 17.6 µM (inactive)
- GI50 [18]: > 100 µM (inactive)
- GI50 [19]: > 100 µM (inactive)

Compound: O=C1CCC(Cc2ccc(Cl)cc2Cl)C(=O)N1 (centres undefined)
- GI50 [1]: > 100 µM (inactive)
- GI50 [2]: > 100 µM (inactive)
- GI50 [3]: > 100 µM (inactive)
- GI50 [4]: > 100 µM (inactive)
- GI50 [5]: > 100 µM (inactive)
- GI50 [6]: 66.7 µM (inactive)
- GI50 [7]: > 100 µM (inactive)
- GI50 [8]: 65 µM (inactive)
- GI50 [9]: > 100 µM (inactive)
- GI50 [10]: > 100 µM (inactive)
- GI50 [11]: 59.7 µM (inactive)
- GI50 [13]: > 100 µM (inactive)
- GI50 [20]: > 100 µM (inactive)
- GI50 [14]: > 100 µM (inactive)
- GI50 [15]: > 100 µM (inactive)
- GI50 [16]: 82.8 µM
- GI50 [17]: > 100 µM (inactive)
- GI50 [18]: > 100 µM (inactive)
- GI50 [19]: > 100 µM (inactive)

Compound: CC1CC(NN(C)C)C2(C(N)=O)C(N)=NC(=O)C12C#N (centres undefined)
- GI50 [1]: > 10 µM (inactive)
- GI50 [2]: > 100 µM (inactive)
- GI50 [3]: > 100 µM (inactive)
- GI50 [4]: > 100 µM (inactive)
- GI50 [5]: > 100 µM (inactive)
- GI50 [6]: > 100 µM (inactive)
- GI50 [7]: > 100 µM (inactive)
- GI50 [8]: > 100 µM (inactive)
- GI50 [10]: > 100 µM (inactive)
- GI50 [11]: > 100 µM (inactive)
- GI50 [12]: > 100 µM (inactive)
- GI50 [13]: > 100 µM (inactive)
- GI50 [20]: > 100 µM (inactive)
- GI50 [14]: > 100 µM (inactive)
- GI50 [15]: > 100 µM (inactive)
- GI50 [16]: > 100 µM
- GI50 [17]: > 100 µM (inactive)
- GI50 [18]: > 100 µM (inactive)
- GI50 [19]: > 100 µM (inactive)

Compound: O=S(=O)(O)c1ccc2c(/N=N/c3c(O)ccc4ccccc34)cccc2c1
- GI50 [1]: > 100 µM (inactive)
- GI50 [2]: > 100 µM (inactive)
- GI50 [3]: > 100 µM (inactive)
- GI50 [4]: 70.6 µM (inactive)
- GI50 [5]: > 100 µM (inactive)
- GI50 [6]: > 100 µM (inactive)
- GI50 [7]: > 100 µM (inactive)
- GI50 [8]: 61.5 µM (inactive)
- GI50 [9]: > 100 µM (inactive)
- GI50 [10]: > 100 µM (inactive)
- GI50 [12]: > 100 µM (inactive)
- GI50 [13]: > 100 µM (inactive)
- GI50 [20]: > 100 µM (inactive)
- GI50 [14]: > 100 µM (inactive)
- GI50 [15]: > 100 µM (inactive)
- GI50 [16]: > 100 µM
- GI50 [17]: > 100 µM (inactive)
- GI50 [18]: 34.3 µM (inactive)
- GI50 [19]: > 100 µM (inactive)

Compound: Cc1nc2c(Br)cc(Br)cc2c(=O)n1-c1ccccc1NC1OC(CO)C(O)C(O)C1O (centres undefined)
- GI50 [1]: > 100 µM (inactive)
- GI50 [2]: > 100 µM (inactive)
- GI50 [3]: > 100 µM (inactive)
- GI50 [4]: > 100 µM (inactive)
- GI50 [5]: > 100 µM (inactive)
- GI50 [6]: > 100 µM (inactive)
- GI50 [7]: > 100 µM (inactive)
- GI50 [8]: > 100 µM (inactive)
- GI50 [9]: > 100 µM (inactive)
- GI50 [10]: > 100 µM (inactive)
- GI50 [11]: > 100 µM (inactive) and 79.1 µM (inactive)
- GI50 [12]: > 100 µM (inactive)
- GI50 [13]: > 100 µM (inactive)
- GI50 [20]: > 100 µM (inactive)
- GI50 [14]: > 100 µM (inactive)
- GI50 [16]: > 100 µM
- GI50 [17]: > 100 µM (inactive)
- GI50 [18]: > 100 µM (inactive)
- GI50 [19]: > 100 µM (inactive)

Compound: COC(=O)CCC(C)C1CCC2C3C(C[C@H](OC(C)=O)[C@]12C)[C@@]1(C)CCC2(C[C@H]1C[C@H]3OC(C)=O)OOC1(CC[C@]3(C)C4C[C@H](OC(C)=O)[C@]5(C)C(C(C)CCC(=O)OC)CCC5C4[C@H](OC(C)=O)C[C@@H]3C1)OO2 (some centres undefined)
- GI50 [1]: 38.3 µM (inactive)
- GI50 [2]: > 100 µM (inactive)
- GI50 [3]: > 100 µM (inactive)
- GI50 [4]: 14.8 µM (inactive)
- GI50 [5]: 24 µM (inactive)
- GI50 [6]: > 100 µM (inactive)
- GI50 [7]: > 100 µM (inactive)
- GI50 [8]: > 100 µM (inactive)
- GI50 [9]: 50.7 µM (inactive)
- GI50 [10]: > 100 µM (inactive)
- GI50 [11]: 48.4 µM (inactive)
- GI50 [12]: > 100 µM (inactive)
- GI50 [13]: 66.8 µM (inactive)
- GI50 [20]: > 100 µM (inactive)
- GI50 [14]: 84.7 µM (inactive)
- GI50 [15]: 91.8 µM (inactive)
- GI50 [16]: > 100 µM
- GI50 [18]: > 100 µM (inactive)
- GI50 [19]: 78.7 µM (inactive)

Compound: CC(C)=Nn1cnc(C(=N)C#N)c1N
- GI50 [1]: > 100 µM (inactive)
- GI50 [2]: > 100 µM (inactive)
- GI50 [3]: > 100 µM (inactive)
- GI50 [4]: > 100 µM (inactive)
- GI50 [5]: > 100 µM (inactive)
- GI50 [6]: > 100 µM (inactive)
- GI50 [7]: > 100 µM (inactive)
- GI50 [8]: > 100 µM (inactive)
- GI50 [9]: > 100 µM (inactive)
- GI50 [10]: > 100 µM (inactive)
- GI50 [11]: > 100 µM (inactive)
- GI50 [13]: > 100 µM (inactive)
- GI50 [20]: > 100 µM (inactive)
- GI50 [14]: > 100 µM (inactive)
- GI50 [15]: > 100 µM (inactive)
- GI50 [16]: > 100 µM
- GI50 [17]: > 100 µM (inactive)
- GI50 [18]: > 100 µM (inactive)
- GI50 [19]: 29.4 µM (inactive)

Compound: S=C1NC2=C(COC/C2=C\c2ccccc2Cl)C(c2ccccc2Cl)N1 (centres undefined)
- GI50 [1]: 11.4 µM (inactive)
- GI50 [2]: 14.3 µM (inactive)
- GI50 [3]: > 100 µM (inactive)
- GI50 [4]: 8.75 µM (inactive)
- GI50 [5]: 73.8 µM (inactive)
- GI50 [6]: 29.6 µM (inactive)
- GI50 [7]: 21.2 µM (inactive)
- GI50 [8]: 33.2 µM (inactive)
- GI50 [9]: 18.8 µM (inactive)
- GI50 [10]: 25.8 µM (inactive)
- GI50 [11]: 7.5 µM (inactive)
- GI50 [12]: 11 µM (inactive)
- GI50 [13]: 27.4 µM (inactive)
- GI50 [20]: > 100 µM (inactive)
- GI50 [14]: 34.9 µM (inactive)
- GI50 [16]: 16.8 µM
- GI50 [17]: 65.3 µM (inactive)
- GI50 [18]: 14.9 µM (inactive)
- GI50 [19]: 35.2 µM (inactive)

Compound: c1n[nH]cc1C12C3C4C5C3C1C5C42 (centres undefined)
- GI50 [1]: 75.9 µM (inactive)
- GI50 [2]: > 100 µM (inactive)
- GI50 [3]: 94.6 µM (inactive)
- GI50 [4]: > 100 µM (inactive)
- GI50 [5]: > 100 µM (inactive)
- GI50 [6]: > 100 µM (inactive)
- GI50 [7]: > 100 µM (inactive)
- GI50 [8]: 85.7 µM (inactive)
- GI50 [10]: > 100 µM (inactive)
- GI50 [11]: > 100 µM (inactive)
- GI50 [12]: > 100 µM (inactive)
- GI50 [13]: > 100 µM (inactive)
- GI50 [20]: > 100 µM (inactive)
- GI50 [14]: > 100 µM (inactive)
- GI50 [15]: > 100 µM (inactive)
- GI50 [16]: > 100 µM
- GI50 [17]: > 100 µM (inactive)
- GI50 [18]: > 100 µM (inactive)
- GI50 [19]: > 100 µM (inactive)

Compound: CN1CCc2c3n(c4cc(Br)ccc24)[C@H](O)CCCC31 (some centres undefined)
- GI50 [1]: 1.85 µM (inactive)
- GI50 [2]: 5.89 µM (inactive)
- GI50 [3]: > 5.18 µM (inactive)
- GI50 [4]: 1.87 µM (inactive)
- GI50 [5]: 2.99 µM (inactive)
- GI50 [6]: 1.49 µM (inactive)
- GI50 [7]: 4.97 µM (inactive)
- GI50 [8]: > 10 µM (inactive)
- GI50 [9]: 1.6 µM (inactive)
- GI50 [10]: 1.79 µM (inactive)
- GI50 [11]: 1.95 µM (inactive)
- GI50 [12]: 2.38 µM (inactive)
- GI50 [13]: > 10 µM (inactive)
- GI50 [20]: > 10 µM (inactive)
- GI50 [14]: > 10 µM (inactive)
- GI50 [15]: > 5.86 µM (inactive)
- GI50 [16]: 2.62 µM
- GI50 [18]: 1.37 µM (inactive)
- GI50 [19]: 1.77 µM (inactive)
